In brackets after ≈: the same amount, converted by molar mass. Activity calls are given as the source filed them. No cut-off for these calls is given here.
What was measured:
[1] = Inhibition of full-length huntingtin Q138 mutant (unknown origin) expressed in human T-RexTM-293 cells co-expressing CRE-Luc assessed as decrease of CREB-mediated transcription after 72 hrs by luciferase reporter gene based luminescence assay; type: cell-based; details: HEK293, 72 h
HEK293 [2] = assay: Inhibition of full-length huntingtin Q138 mutant (unknown origin) expressed in human T-RexTM-293 cells co-expressing CRE-Luc assessed as decrease of CREB-mediated transcription up to 50 uM after 72 hrs by luciferase reporter gene based luminescence assay; type: cell-based
[3] = Kinetic solubility of the compound at pH 7.4; type: physicochemical; details: buffer, read-out: Kinetic_solubility
HEK293 [4] = assay: Inhibition of full-length huntingtin Q138 mutant (unknown origin) expressed in human T-RexTM-293 cells co-expressing CRE-Luc assessed as decrease of CREB-mediated transcription after 72 hrs by luciferase reporter gene based luminescence assay relative to control; type: cell-based
[5] = Stability of the compound at pH 3 to 7.4 assessed as dehydration; type: physicochemical; details: buffer
[6] = Permeability of the compound from apical to basolateral side of MDCK cells expressing MDR1 after 120 mins; type: ADME, cell-based, Canis lupus familiaris; details: dog, read-out: permeability
[7] = Intrinsic clearance in mouse liver microsomes at 1 uM in presence of NADPH; type: ADME, Microsome; details: read-out: CLH
MDCK = assay: Efflux ratio of permeability […] in MDCK cells expressing MDR1 after 120 mins; type: ADME, cell-based, Canis lupus familiaris; details: dog, 2 h
[8] = Intrinsic clearance in human liver microsomes at 1 uM in presence of NADPH; type: ADME, Microsome; details: read-out: CLH
[9] = Cytotoxicity in Sprague-Dawley rat striatal neurons; type: cell-based; details: neuron
Rattus norvegicus = organism: Rattus norvegicus; assay: Inhibition of huntingtin 171-82Q mutant-mediated cell death in Sprague-Dawley rat striatal neurons at 10 to 30 uM by NeuN-positive cell counting assay
[10] = target: Huntingtin (Rattus norvegicus) (UniProt P51111); assay: Inhibition of wild type huntingtin 171-18Q-mediated cell death in Sprague-Dawley rat striatal neurons at 1 to 30 uM by NeuN-positive cell counting assay
Cytochrome P450 2D6 = Cytochrome P450 2D6 (Homo sapiens, UniProt P10635); assay: Inhibition of CYP2D6 (unknown origin); type: ADME
Mus musculus [11] = assay: Antihuntington's disease activity in R6/2 transgenic mouse assessed as decrease in body weight at 10 to 30 mg/kg, po qd; type: functional, organism-based
Cytochrome P450 3A4 [12] = target: T1, Cytochrome P450 3A4 (Homo sapiens, UniProt P08684); assay: Inhibition of CYP3A4 (unknown origin) using testosterone as substrate; type: ADME
Mus musculus [13] = assay: Antihuntington's disease activity in R6/2 transgenic mouse assessed as decrease of cerebral ventricles size at 3 to 30 mg/kg, po qd measured after 8 weeks; type: functional, organism-based
[14] = Ratio of drug level in brain to plasma in CD1 mouse at 5 mg/kg, po and iv; type: ADME, organism-based; design: dose 5 mg/kg, route oral; details: read-out: BPR
Mus musculus [15] = assay: Toxicity in R6/2 transgenic mouse assessed as motor impairment at 1 to 30 mg/kg, po qd; type: organism-based; design: dose 1-30 mg/kg, route oral; details: in vivo
Cytochrome P450 2C9 = Cytochrome P450 2C9 (Homo sapiens, UniProt P11712); assay: Inhibition of CYP2C9 (unknown origin); type: ADME
Salmonella typhimurium = assay: Genotoxicity in Salmonella typhimurium by Ames test; type: toxicity, organism-based; details: salmonella enterica subsp. enterica serovar typhimurium
PC-12 [16] = assay: Inhibition of GFP tagged-exon-1 fragment of huntingtin 74Q mutant (unknown origin) expressed in rat PC12 cells assessed as protection against doxycycline-induced cell death after 72 hrs by LDH release assay; type: cell-based; details: Homo sapiens
Cytochrome P450 3A4 [17] = target: T1, Cytochrome P450 3A4; assay: Inhibition of CYP3A4 (unknown origin) using nifedipine as substrate; type: ADME
Mus musculus [18] = assay: Toxicity in R6/2 transgenic mouse assessed as mortality at 1 to 30 mg/kg, po qd; type: organism-based; design: dose 1-30 mg/kg, route oral; details: in vivo
[19] = target: Voltage-gated inwardly rectifying potassium channel KCNH2 (Homo sapiens, UniProt Q12809); assay: Inhibition of human ERG up to 100 uM
PC-12 [20] = assay: Cytoprotective activity in rat PC12 cells after 72 hrs by LDH release assay; type: ADME, cell-based; details: pc-12, 72 h
Mus musculus [21] = assay: Ex vivo antihuntington's disease activity in R6/2 transgenic mouse assessed as decrease of cerebral ventricles size at 3 to 30 mg/kg, po qd measured after 8 weeks by MRI analysis; type: functional, organism-based
Mus musculus [22] = assay: Antihuntington's disease activity in R6/2 transgenic mouse assessed as prevention of ventricular volume enlargment at 3 to 30 mg/kg, po qd measured after 8 weeks; type: functional, organism-based
Cytochrome P450 2C19 = Cytochrome P450 2C19 (Homo sapiens, UniProt P33261); assay: Inhibition of CYP2C19 (unknown origin); type: ADME
Cytochrome P450 1A2 = target: T2, Cytochrome P450 1A2 (Homo sapiens, UniProt P05177); assay: Inhibition of CYP1A2 (unknown origin); type: ADME
T2 sequence (P05177 whole entry): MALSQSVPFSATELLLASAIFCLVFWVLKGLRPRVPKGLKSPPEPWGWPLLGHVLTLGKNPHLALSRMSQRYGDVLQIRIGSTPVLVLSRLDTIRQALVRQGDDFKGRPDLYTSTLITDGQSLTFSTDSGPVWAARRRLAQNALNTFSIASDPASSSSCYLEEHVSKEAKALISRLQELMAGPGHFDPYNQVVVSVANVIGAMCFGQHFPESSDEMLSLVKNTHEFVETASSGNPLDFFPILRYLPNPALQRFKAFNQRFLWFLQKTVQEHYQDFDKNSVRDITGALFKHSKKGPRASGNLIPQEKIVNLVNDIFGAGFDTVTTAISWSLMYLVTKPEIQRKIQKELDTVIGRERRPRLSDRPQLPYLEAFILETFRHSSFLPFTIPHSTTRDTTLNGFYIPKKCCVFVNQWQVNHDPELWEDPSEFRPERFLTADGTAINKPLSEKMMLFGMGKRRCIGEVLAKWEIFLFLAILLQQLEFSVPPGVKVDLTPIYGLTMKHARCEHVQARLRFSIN

Chain of Huntingtin (Rattus norvegicus) (P51111 whole entry): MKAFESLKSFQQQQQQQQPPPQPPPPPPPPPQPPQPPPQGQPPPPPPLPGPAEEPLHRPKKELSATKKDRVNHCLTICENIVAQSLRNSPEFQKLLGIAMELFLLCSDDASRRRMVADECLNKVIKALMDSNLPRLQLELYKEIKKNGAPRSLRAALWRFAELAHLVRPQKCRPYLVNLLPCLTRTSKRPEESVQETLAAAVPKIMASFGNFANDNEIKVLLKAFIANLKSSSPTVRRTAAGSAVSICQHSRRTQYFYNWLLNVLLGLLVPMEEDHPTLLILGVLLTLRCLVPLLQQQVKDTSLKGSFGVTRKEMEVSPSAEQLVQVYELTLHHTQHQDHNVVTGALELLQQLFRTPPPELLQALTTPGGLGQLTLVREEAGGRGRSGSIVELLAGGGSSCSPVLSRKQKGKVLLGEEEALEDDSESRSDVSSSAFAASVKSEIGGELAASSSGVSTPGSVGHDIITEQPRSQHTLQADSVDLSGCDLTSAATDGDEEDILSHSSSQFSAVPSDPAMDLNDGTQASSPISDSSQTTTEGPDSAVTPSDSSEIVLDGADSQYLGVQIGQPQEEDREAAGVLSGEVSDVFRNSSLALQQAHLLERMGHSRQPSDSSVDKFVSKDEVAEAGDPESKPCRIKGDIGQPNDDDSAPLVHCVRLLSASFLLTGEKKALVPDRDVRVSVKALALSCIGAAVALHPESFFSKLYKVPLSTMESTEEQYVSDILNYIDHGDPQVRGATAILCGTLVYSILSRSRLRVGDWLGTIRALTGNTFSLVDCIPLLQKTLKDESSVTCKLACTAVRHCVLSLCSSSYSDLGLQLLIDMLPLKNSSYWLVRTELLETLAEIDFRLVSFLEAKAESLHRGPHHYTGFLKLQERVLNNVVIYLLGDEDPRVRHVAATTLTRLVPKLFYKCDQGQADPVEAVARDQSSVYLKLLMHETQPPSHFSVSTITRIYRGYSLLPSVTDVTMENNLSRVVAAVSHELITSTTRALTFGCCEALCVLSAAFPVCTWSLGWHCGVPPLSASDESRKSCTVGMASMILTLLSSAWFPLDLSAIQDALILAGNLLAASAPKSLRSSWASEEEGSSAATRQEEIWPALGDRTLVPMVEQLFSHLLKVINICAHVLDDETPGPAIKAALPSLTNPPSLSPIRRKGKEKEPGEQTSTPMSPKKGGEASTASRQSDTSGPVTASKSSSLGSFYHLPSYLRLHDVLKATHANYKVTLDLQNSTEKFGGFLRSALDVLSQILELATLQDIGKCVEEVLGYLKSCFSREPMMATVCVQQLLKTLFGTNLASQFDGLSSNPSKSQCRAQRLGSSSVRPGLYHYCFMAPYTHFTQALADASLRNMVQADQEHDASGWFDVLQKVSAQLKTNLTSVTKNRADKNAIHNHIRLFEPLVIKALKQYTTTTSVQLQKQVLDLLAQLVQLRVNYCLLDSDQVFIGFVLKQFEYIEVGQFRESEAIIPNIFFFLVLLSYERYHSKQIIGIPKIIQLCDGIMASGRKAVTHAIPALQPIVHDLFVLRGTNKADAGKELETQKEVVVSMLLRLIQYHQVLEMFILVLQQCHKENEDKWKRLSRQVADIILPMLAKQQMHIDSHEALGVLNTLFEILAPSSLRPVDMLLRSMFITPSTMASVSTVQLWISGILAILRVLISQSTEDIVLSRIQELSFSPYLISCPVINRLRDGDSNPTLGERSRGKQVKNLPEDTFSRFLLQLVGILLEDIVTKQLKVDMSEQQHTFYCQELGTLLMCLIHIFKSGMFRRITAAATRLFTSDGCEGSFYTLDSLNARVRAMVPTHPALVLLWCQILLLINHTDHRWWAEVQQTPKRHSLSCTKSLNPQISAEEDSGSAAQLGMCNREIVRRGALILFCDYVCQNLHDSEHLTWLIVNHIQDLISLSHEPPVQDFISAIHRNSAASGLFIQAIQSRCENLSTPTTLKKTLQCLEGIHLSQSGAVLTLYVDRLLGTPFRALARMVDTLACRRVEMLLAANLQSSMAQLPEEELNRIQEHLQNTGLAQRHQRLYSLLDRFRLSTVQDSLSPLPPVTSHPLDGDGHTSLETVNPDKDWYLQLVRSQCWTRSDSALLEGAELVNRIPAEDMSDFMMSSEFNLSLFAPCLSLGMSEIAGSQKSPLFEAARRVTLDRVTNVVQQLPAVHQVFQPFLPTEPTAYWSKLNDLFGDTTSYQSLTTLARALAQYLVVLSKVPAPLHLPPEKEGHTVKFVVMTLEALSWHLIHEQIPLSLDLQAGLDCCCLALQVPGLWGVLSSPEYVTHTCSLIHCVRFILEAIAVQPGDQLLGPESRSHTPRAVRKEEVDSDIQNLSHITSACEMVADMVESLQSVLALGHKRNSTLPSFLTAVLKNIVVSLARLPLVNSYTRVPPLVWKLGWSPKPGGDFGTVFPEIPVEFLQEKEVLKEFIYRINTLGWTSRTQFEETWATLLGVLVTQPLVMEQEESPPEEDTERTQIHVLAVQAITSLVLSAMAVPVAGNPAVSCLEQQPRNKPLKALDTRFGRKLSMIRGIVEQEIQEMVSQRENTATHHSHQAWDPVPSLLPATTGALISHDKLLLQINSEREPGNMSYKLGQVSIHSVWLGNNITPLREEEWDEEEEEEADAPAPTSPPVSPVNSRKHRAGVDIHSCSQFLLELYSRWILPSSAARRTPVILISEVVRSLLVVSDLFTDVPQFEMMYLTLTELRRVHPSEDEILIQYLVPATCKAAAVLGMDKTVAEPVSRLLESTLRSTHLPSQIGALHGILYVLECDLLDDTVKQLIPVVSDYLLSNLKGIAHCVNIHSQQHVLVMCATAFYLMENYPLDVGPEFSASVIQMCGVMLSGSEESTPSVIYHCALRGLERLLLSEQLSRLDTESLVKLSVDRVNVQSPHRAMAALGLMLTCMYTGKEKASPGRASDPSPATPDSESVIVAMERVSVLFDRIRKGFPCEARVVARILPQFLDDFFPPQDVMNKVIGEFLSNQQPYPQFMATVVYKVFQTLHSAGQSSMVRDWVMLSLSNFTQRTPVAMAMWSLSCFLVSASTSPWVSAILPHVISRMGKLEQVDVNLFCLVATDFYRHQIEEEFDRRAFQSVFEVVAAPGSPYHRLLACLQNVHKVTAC
T1 sequence (P08684 whole entry): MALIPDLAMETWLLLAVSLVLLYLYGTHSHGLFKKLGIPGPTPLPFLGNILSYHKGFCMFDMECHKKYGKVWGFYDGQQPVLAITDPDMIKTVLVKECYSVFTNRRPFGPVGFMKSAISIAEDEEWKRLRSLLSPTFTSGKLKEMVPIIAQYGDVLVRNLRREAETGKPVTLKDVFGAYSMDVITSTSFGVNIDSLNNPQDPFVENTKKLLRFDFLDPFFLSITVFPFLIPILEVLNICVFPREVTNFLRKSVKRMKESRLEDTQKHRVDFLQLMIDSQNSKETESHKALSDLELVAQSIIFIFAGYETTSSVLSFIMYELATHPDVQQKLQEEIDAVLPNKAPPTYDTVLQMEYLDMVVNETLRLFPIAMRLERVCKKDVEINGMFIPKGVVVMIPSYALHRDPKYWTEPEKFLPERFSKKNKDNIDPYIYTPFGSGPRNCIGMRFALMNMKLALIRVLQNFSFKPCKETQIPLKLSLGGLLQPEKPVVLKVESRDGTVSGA
Chain of Cytochrome P450 2C19 (P33261 whole entry): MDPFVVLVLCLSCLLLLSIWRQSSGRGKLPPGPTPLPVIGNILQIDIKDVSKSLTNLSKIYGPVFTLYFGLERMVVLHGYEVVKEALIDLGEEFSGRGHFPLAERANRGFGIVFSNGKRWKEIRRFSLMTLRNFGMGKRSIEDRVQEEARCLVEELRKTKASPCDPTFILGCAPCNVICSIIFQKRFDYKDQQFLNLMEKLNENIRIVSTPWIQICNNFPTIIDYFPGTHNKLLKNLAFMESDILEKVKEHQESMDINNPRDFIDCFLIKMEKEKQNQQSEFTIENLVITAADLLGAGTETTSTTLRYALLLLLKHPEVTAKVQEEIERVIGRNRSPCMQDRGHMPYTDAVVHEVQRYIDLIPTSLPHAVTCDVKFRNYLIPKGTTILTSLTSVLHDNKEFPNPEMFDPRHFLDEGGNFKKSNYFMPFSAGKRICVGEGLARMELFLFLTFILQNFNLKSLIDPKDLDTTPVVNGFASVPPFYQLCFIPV
Chain of Cytochrome P450 2D6 (P10635 whole entry): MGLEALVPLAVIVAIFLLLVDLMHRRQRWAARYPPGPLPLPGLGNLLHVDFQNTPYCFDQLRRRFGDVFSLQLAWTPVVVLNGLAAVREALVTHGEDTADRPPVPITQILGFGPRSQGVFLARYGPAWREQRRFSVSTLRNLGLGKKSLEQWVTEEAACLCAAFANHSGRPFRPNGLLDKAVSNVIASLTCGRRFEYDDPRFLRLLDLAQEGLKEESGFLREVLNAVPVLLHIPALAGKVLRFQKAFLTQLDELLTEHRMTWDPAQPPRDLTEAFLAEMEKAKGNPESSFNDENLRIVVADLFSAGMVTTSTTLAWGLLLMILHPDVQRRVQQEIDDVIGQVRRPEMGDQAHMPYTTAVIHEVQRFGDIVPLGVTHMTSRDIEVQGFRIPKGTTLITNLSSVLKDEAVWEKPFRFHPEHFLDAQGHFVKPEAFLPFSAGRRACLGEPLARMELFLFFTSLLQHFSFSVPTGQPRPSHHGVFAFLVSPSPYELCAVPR
Chain of Cytochrome P450 2C9 (P11712 whole entry): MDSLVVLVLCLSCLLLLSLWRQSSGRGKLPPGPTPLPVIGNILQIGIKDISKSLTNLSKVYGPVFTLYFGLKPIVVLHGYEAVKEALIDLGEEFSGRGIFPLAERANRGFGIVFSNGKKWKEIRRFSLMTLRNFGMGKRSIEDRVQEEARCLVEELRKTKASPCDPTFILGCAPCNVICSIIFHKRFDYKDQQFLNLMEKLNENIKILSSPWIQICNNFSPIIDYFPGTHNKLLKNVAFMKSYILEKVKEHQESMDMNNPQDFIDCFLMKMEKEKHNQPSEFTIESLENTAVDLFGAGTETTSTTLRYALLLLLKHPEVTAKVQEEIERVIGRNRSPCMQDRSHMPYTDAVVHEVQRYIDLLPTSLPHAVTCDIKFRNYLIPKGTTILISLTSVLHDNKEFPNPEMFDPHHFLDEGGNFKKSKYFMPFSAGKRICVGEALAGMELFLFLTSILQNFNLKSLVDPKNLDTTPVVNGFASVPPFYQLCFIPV

| EC50 [1] | solubility kinetic [3] | Stability [5] | Papp A→B at 2 h [6] | microsomal CLint at 1 µM [7] | Ratio (MDCK) | microsomal CLint at 1 µM [8] | Structure (SMILES) | Emax (HEK293 [4]) | other results |
| --- | --- | --- | --- | --- | --- | --- | --- | --- | --- |
| > 50 µM | 5 µM (≈ 1.58 µg/mL) |  |  |  |  |  | CC1=NN(C(=O)c2cccc(C)c2O)C(O)(C(F)(F)F)C1C (centres undefined) |  | inhibition (HEK293 [2]): inactive |
| 5.2 µM | 101 µM (≈ 34.6 µg/mL) | Stable | 31.6 ×10⁻⁶ cm/s | > 700 µL/min/mg | 0.8 | 352 µL/min/mg | Cc1cccc(C(=O)N2N=C3CCCC[C@@H]3[C@@]2(O)C(F)(F)F)c1O (racemic) | 32% |  |
| 6.6 µM | 205 µM (≈ 67.9 µg/mL) | Stable | 17.2 ×10⁻⁶ cm/s | 22.9 µL/min/mg | 1.6 | < 5 µL/min/mg | Cn1cc(N)c(C(=O)N2N=C3CCCC[C@@H]3[C@@]2(O)C(F)(F)F)n1 (racemic) | 30% |  |
| 9.1 µM | 98 µM (≈ 30.7 µg/mL) | Stable | 36 ×10⁻⁶ cm/s | 54.6 µL/min/mg | 1.1 | 21.4 µL/min/mg | O=C(c1ccncc1)N1N=C2CCCC[C@@H]2[C@@]1(O)C(F)(F)F (racemic) | 42% | Activity [9]: Non-toxic; inhibition (Rattus norvegicus): Active; inhibition [10]: Active |
| 3.7 µM | 212 µM (≈ 69.4 µg/mL) | Stable | 43.4 ×10⁻⁶ cm/s | 174 µL/min/mg | 1.5 | 19.2 µL/min/mg | Cc1ccc(C(=O)N2N=C3CCCC[C@@H]3[C@@]2(O)C(F)(F)F)cn1 (racemic) | 43% |  |
| 28.7 µM | 72 µM (≈ 21.7 µg/mL) | Stable |  |  |  |  | O=C(c1ccc[nH]1)N1N=C2CCCC[C@@H]2[C@@]1(O)C(F)(F)F (racemic) | 20% |  |
| 22.4 µM | 111 µM (≈ 43.8 µg/mL) | Stable |  |  |  |  | O=C(c1cncc(Br)c1)N1N=C2CCOC[C@@H]2[C@@]1(O)C(F)(F)F (racemic) | 24% |  |
| 6.1 µM | 187 µM (≈ 59 µg/mL) | Stable | 29.2 ×10⁻⁶ cm/s | 16.6 µL/min/mg | 1.1 | 15.7 µL/min/mg | O=C(c1cccnc1)N1N=C2CCOC[C@@H]2[C@@]1(O)C(F)(F)F (racemic) | 40% |  |
| 10 µM | 56 µM (≈ 19.1 µg/mL) | Stable |  |  |  |  | Cc1ccc(C(=O)N2N=C3CCCCC[C@@H]3[C@@]2(O)C(F)(F)F)cn1 (racemic) | 30% |  |
| 30 µM |  | Stable |  |  |  |  | Cc1nn(C)c(Cl)c1S(=O)(=O)N1N=C2CCOC[C@@H]2[C@@]1(O)C(F)(F)F (racemic) | -17% |  |
| 17.1 µM | 153 µM (≈ 48.7 µg/mL) | Stable | 29.1 ×10⁻⁶ cm/s | 21.1 µL/min/mg | 1.1 | 6.1 µL/min/mg | Nc1nc(C(=O)N2N=C3CCCC[C@@H]3[C@@]2(O)C(F)(F)F)co1 (racemic) | 21% |  |
| 10.8 µM | 96 µM (≈ 31.4 µg/mL) | Stable | 36.2 ×10⁻⁶ cm/s | 170 µL/min/mg | 1 | 71.9 µL/min/mg | O=C(c1ccncc1)N1N=C2CCCCC[C@@H]2[C@@]1(O)C(F)(F)F (racemic) | 34% |  |
| 19.9 µM | 182 µM (≈ 65.4 µg/mL) | Stable |  |  |  |  | CCNc1cn(C)nc1C(=O)N1N=C2CCCC[C@@H]2[C@@]1(O)C(F)(F)F (racemic) | 37% |  |
| 1.8 µM | 111 µM (≈ 45.6 µg/mL) | Stable |  |  |  |  | CCOC(=O)c1c[nH]nc1S(=O)(=O)N1N=C2CCCC[C@@H]2[C@@]1(O)C(F)(F)F (racemic) | 34% |  |
| 4.9 µM | 114 µM (≈ 45.1 µg/mL) | Stable | 39.3 ×10⁻⁶ cm/s | 101 µL/min/mg | 1 | 17.7 µL/min/mg | Cn1cc(Br)c(C(=O)N2N=C3CCCC[C@@H]3[C@@]2(O)C(F)(F)F)n1 (racemic) | 29% | Activity [9]: Non-toxic; inhibition (Rattus norvegicus): Active; inhibition [10]: Active |
| 14.2 µM | 30 µM (≈ 9.46 µg/mL) | Stable |  |  |  |  | O=C(c1ccc[nH]1)N1N=C2CCCCC[C@@H]2[C@@]1(O)C(F)(F)F (racemic) | 6% |  |
| 1.7 µM | 156 µM (≈ 55 µg/mL) | Stable | 12.8 ×10⁻⁶ cm/s | 28.3 µL/min/mg | 0.9 | 37.6 µL/min/mg | Cn1cnc(S(=O)(=O)N2N=C3CCCC[C@@H]3[C@@]2(O)C(F)(F)F)c1 (racemic) | 41% | Activity [9]: Non-toxic; inhibition (Rattus norvegicus): Active; inhibition [10]: Active |

| Structure (SMILES) | EC50 [1] | solubility kinetic [3] | Stability [5] | Papp A→B at 2 h [6] | microsomal CLint at 1 µM [7] | Ratio (MDCK) | microsomal CLint at 1 µM [8] | Emax (HEK293 [4]) | other results |
| --- | --- | --- | --- | --- | --- | --- | --- | --- | --- |
| Nc1nc(C(=O)N2N=C3CCCC[C@@H]3[C@@]2(O)C(F)(F)F)cs1 (racemic) | 1.8 µM | 96 µM (≈ 32.1 µg/mL) | Stable | 31 ×10⁻⁶ cm/s | 27.6 µL/min/mg | 1.1 | 13.6 µL/min/mg | 44% | INH (Cytochrome P450 2D6): > 30 µM; Activity (Mus musculus [11]): Active; INH (Cytochrome P450 3A4 [12]): > 30 µM; Activity (Mus musculus [13]): Active; Kp [14]: 0.34; Activity [9]: Non-toxic; Activity (Mus musculus [15]): Non-toxic; INH (Cytochrome P450 2C9): > 30 µM; inhibition (Rattus norvegicus): Active; Activity (Salmonella typhimurium): Non-toxic; inhibition (PC-12 [16]): Active; inhibition [10]: Active; INH (Cytochrome P450 3A4 [17]): > 30 µM; Activity (Mus musculus [18]): Non-toxic; inhibition (INH) [19]: Not Active; Activity (PC-12 [20]): Non-toxic; Activity (Mus musculus [21]): Active; Activity (Mus musculus [22]): Active; INH (Cytochrome P450 2C19): 24.4 µM; INH (Cytochrome P450 1A2): > 30 µM |
